The source of these data is article PMC11661376, “A2B adenosine receptor-triggered intracellular calcium mobilization: Cell type-dependent involvement of Gi, Gq, Gs proteins and protein kinase C” (Research Square, 2024).

The experiment addresses T1, P2Y1 receptor (P2Y1R) (Homo sapiens, UniProt P47900).
T1 construct: gene P2RY1; native receptor in T24 and HEK293 cells
The experiment is described as follows: agonist-induced intracellular Ca2+ mobilization (FLIPR) in T24 cells. Format: cell-based.

T1 sequence (P47900 whole entry): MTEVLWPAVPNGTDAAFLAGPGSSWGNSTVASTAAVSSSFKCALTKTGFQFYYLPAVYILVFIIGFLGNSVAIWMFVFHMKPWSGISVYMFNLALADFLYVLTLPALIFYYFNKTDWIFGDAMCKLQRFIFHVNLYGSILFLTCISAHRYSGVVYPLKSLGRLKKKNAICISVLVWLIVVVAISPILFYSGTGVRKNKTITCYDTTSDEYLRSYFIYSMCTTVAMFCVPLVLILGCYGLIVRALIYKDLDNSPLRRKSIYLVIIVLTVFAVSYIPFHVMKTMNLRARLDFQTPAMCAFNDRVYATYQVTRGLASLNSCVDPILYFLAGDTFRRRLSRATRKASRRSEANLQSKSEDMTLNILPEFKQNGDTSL

Turning to `CSc1nc(N)c2ncn([C@H]3[C@H](O)[C@H](O)[C@]4(COP(=O)(O)OP(=O)(O)O)C[C@H]34)c2n1` [MRS2365], the EC50 is 1.38 ± 0.26 nM.
